Experimental data reported in PMC2846458 (Nature medicine, 2008).
Positions count from the first letter of the chain named. pIC50: −log10 of the molar value.

Columns and labels:
[1] = Tolerability of treatment in mice
[2] = tested on: Ad.Cre-injected conditional caALK2–transgenic mice; assay: Ectopic ossification in Ad.Cre-injected conditional caALK2-transgenic mice; type: in vivo, mouse
[3] = target: T1, ALK2^R206H (Homo sapiens, UniProt Q04771, R206H); assay: Id1 promoter activity; type: cell-based
T1 sequence (Q04771 21-509 R206H): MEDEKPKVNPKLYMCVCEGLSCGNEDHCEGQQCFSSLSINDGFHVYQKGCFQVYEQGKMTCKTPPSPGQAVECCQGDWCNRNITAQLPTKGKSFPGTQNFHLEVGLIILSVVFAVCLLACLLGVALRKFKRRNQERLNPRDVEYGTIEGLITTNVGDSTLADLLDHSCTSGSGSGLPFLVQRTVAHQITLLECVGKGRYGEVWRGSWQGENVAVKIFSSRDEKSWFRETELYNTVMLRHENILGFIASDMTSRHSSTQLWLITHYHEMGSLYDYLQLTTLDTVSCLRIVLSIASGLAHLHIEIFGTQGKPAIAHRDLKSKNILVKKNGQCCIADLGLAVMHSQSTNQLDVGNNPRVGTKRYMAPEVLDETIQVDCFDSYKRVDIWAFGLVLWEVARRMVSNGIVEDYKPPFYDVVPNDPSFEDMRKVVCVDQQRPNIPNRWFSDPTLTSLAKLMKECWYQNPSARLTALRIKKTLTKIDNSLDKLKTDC

[4] = tested on: C2C12 cells; assay: BMP4-induced alkaline phosphatase activity; type: cell-based; conditions: 100 nM, BMP4 10 ng ml^-1, even when administered 12 h after BMP stimulation
[5] = target: T2, ALK2^Q207D (Homo sapiens, UniProt Q04771, Q207D); assay: Id1 promoter activity; type: cell-based
T2 sequence (Q04771 21-509 Q207D): T1 sequence (Q04771 21-509 R206H) with H186R, Q187D

[6] = tested on: TGF-β signaling; assay: Immunoblot of TGF-β signaling in PASMCs; type: cell-based; conditions: Mus musculus, PASMC, read-out: IC50 for TGF-β signaling
[7] = 3 mg kg^-1 i.p. every 12 h, lesions attenuated in the remainder

| SMILES | effect on weight and growth ([1]; wild-type or mutant mice, during drug administration) | ectopic calcifications and immobility at P30 ([2]; 10 mg kg^-1 d^-1 i.p. starting 1 d after Ad.Cre at P7, versus vehicle) | effect on transcriptional activity induced by ALK2^R206H [3] | effect on induction of alkaline phosphatase activity by BMP4 [4] | fractures, osteopenia, skeletal abnormalities ([1]; 3 mg kg^-1 i.p. every 12 h, up to P60) | effect on transcriptional activity induced by ALK2^Q207D [5] | endochondral bone in hindlimbs (histology) ([2]; 3 mg kg^-1 i.p. every 12 h) | phosphorylated Smad1/5/8 and Runx2 staining in left gastrocnemius ([2]; 3 mg kg^-1 i.p. every 12 h, P11) | passive range of motion in the ankle joint ([2]; 3 mg kg^-1 i.p. every 12 h, P15 and P30, versus vehicle) | fraction of mice in which ectopic bone was prevented at P30 [2, 7] | fraction of mice in which ectopic bone was prevented at P60 [2, 7] | radiographic lesions at P15 ([2]; 3 mg kg^-1 i.p. every 12 h after Ad.Cre on P7) | pIC50 [6] |
| --- | --- | --- | --- | --- | --- | --- | --- | --- | --- | --- | --- | --- | --- |
| C[C@@H]1C[C@H]2[C@@H]3CCC4=CC(=O)C=C[C@]4(C)[C@@]3(F)[C@@H](O)C[C@]2(C)[C@@]1(O)C(=O)CO [dexamethasone, reference compound] | severely impaired weight gain | markedly reduced |  |  |  |  |  |  |  |  |  |  |  |
| c1ccc2c(-c3cnn4cc(-c5ccc(N6CCNCC6)cc5)cnc34)ccnc2c1 [LDN-193189, 4-[6-(4-piperazin-1-ylphenyl)pyrazolo[1,5-a]pyrimidin-3-yl]quinoline] |  |  | blocked the transcriptional activity | inhibited the induction of alkaline phosphatase activity | without inducing fractures, osteopenia or skeletal abnormalities | blocked the transcriptional activity | substantially less endochondral bone | diminished | significant rescue of function | approximately two-thirds | one-third | prevented radiographic lesions at P15 in all mice examined | ≤ 6.00 |
